Data from US7294625B2, “Pyrazole compounds” (Ube Industries, Ltd., priority 2002, dated 2007).

What was measured:
[1] = molecular target: T1, p38MAP kinase (Homo sapiens, UniProt Q16539); experiment: Enzyme inhibitory test against p38MAP kinase; assay type: biochemical; settings: active type p38MAP kinase, EGFR peptide substrate, [γ-32P]ATP, 30° C. 30 minutes; read-out: p38MAP kinase inhibition IC50 value
T1 construct: purchased Stratagene (p38MAP kinase); Upstate (SKK/MKK6) #206145 (p38MAP kinase); #14-225 or #14-303 (SKK/MKK6)
T1 sequence (Q16539 whole entry): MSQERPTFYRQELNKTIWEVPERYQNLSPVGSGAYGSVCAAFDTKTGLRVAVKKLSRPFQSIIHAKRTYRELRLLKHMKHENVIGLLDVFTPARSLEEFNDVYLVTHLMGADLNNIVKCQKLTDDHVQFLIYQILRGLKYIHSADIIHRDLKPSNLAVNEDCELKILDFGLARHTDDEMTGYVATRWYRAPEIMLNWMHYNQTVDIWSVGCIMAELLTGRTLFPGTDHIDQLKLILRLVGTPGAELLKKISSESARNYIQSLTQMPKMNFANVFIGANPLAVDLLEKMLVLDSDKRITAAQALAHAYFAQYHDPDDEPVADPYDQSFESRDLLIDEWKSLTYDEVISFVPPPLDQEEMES
Method: Test Example 1 Enzyme Inhibitory Test Against p38MAP Kinase
(1) Preparatoin of Active Type p38MAP Kinase
An active type p38MAP kinase was prepared by incubation in a reaction solution (25 mM Tris-HCl pH 7.5, 5 mM β-glycerolphosphate, 2 mM DTT, 0.1 mM […], 10 mM MgCl2, 1 mM ATP) containing p38MAP kinase (Stratagene, #206145) and SKK/MKK6 (Upstate, #14-225 or #14-303) at 30° C. for 1 to 3 hours. This enzyme solution was diluted 5 to 10-fold with Stock Buffer (50 mM Tris-HCl pH 7.5, 0.1 mM EGTA, 0.2 mM Orthovanadate, 0.1% 2-ME, 10% glycerol, 0.03% Brij-35, 0.5 μM Microcystin), and preserved under freezing (−80° C.).
(2) Measurement of Inhibitory Activity of p38MAP Kinase
To 34 μL of a reaction solution (25 mM HEPES, pH 7.5, 10 mM Magnesium acetate) containing the active type p38MAP kinase prepared as mentioned above and a substrate (final concentration: […] EGFR; […]) was added 1 μL of DMSO, or a compound to be tested and dissolved in DMSO, then, the mixture was subjected to preincubation at 4° C. for 30 minutes. A reaction was started by adding 5 μL of an ATP solution (400 μM ATP, 1 μCi/μL [γ-^32P]ATP), and reacted at 30° C. for 30 minutes, and then, the reaction was stopped by adding 5 μL of 250 mM H3PO4. 25 μL of the reaction solution was placed on chromatography paper (Whatman, #P81), dried for about 2 minutes, and washed with 75 mM H3PO4. Water was removed by using 95% ethanol, it was transferred to a bial containing liquid scintillation cocktail (available from Nacalai Tesque), and radioactivity was measured. A concentration (IC50 value) of a compound to be tested necessary for inhibiting 50% of phosphrylation (^32P) of the substrate by the enzyme was calculated as compared to that non-treated by the compound to be tested by XL-fit (available from IDBS).

[2] = tested on: rat adjuvant arthritis model; experiment: Anti-inflammatory effect in rat adjuvant arthritis model; assay type: in vivo; settings: LEW rats, 3 mg/Kg oral once a day
Method: Test Example 4 Anti-inflammatory Effect in Rat Adjuvant Arthritis Model
Heat-killed bacteria of Mycobacterium butyricum (available from Difco) were pulverized by agate mortar, and this was suspended in dry-heat sterilized liquid paraffin (available from Wako Pure Chemical Industries, Ltd.) so as to have 10 mg/ml, and subjected to ultrasonic wave treatment to obtain an adjuvant. 500 μg/50 μl/paw of the adjuvant was administered into right hind paw of LEW series rats (female, 7-weeks old, available from Charles River Japan, Inc.) under isoflurane (Forane, available from Abbott Japan) inhalation anesthesia to induce adjuvant arthritis. Also, liquid paraffin containing no dead bacteria was also administered in the same manner as mentioned above to prepare a non-treatment group.
The test compound was suspended in a 0.5% aqueous sodium carboxymethyl cellulose solution, or dissolved in distilled water for injection, and orally administered at a dose of 10 ml/kg once a day from the injected day of the adjuvant (0th day) to 27th day.
After 7th, 14th, 21st and 28th day from administration of the adjuvant, volumes of the right hind paw to which the adjuvant had been administered and of left hind paw to which no adjuvant had been administered were measured by a plethysmometer (TK-101CMP, UNICOM). An edema ratio was calculated from the following equation. Edema ratio (%)=[(volume of hind paw at the time of measurement)/(volume of hind paw before initiation of the test)−1]×100 Moreover, edema suppressive ratio based on the control group to which the vehicle was administered was calculated from the following equation. Edema suppressive ratio (%)=[1-{(edema ratio of test compound-administered group)−(edema ratio of non-treated group)}/{(edema ratio of control group)−(edema ratio of non-treatment group)}]×100 The test results are shown in Table 8.

[3] = tested on: LPS-induced TNF-α production in human PBMC; experiment: Inhibition of TNF-α production in human PBMC (in vitro); assay type: cell-based; settings: LPS 10 μg/ml, 18 hours, TNF-α ELISA, read-out: Inhibitory effect on LPS-induced TNF-α production in human PBMC IC50 value
Method: Test Example 2 Inhibition of TNF-α Production in Human PBMC (In Vitro)
Test was carried out according to the method of Welker et al. (Int. Arch. Allergy Immunol., 109, 110-115 (1996).
Heparin-added blood collected from healthy volunteer with consent was underlayed with a specific gravity-separating solution (Lymphoprep; available from Daiichi Pure Chemicals Co., Ltd.), subjected to centrifugation (800×g, 25 minutes), and a mononuclear cell layer was recovered. The obtained mononuclear cells (human PBMC) were washed twice with PBS (available from SIGMA), and resuspended in 1% FCS-containing RPMI aqueous solution (available from GIBCO) so that the cells became 5×10^6 cells/mL. The thus obtained cell suspension was diluted 10-fold with 1% FCS-containing RPMI medium, DMSO (or the compound to be tested) with a final concentration of 0.5% was added thereto, and cultured at 37° C. in 5% CO2 for 1 hour. After that, LPS (derived from E. Coli 055:5B, available from SIGMA) solution prepared by PBS was added so that the final concentration thereof being 10 μg/ml, and cultivation was carried out for further 18 hours. After the cultivation, culture medium was subjected to centrifugation (800×g, 10 minutes), and a concentration of TNF-α produced in the supernatant was measured by an enzyme-linked immunosorbent assay (ELISA) kit (TNF-α ELISA Kit, available from R&D). The concentration (IC50 value) of the test compound for inhibiting 50% of TNF-α production was calcualted by using XL-fit (available from IDBS).

[4] = tested on: cytokine (IL-1β and TNF-α) induced IL-6 production; experiment: Inhibition of IL-6 production in rat (in vivo); settings: LEW rats, 3 mg/Kg oral, 1 hour before IL-1β/TNF-α i.v., serum IL-6 two hours later
Method: Test Example 3 Inhibition of IL-6 Production in Rat (In Vivo)
A cytokine mixed solution of IL-1β and TNF-α was intravenously injected to rats to induce production of IL-6. A mixed solution of IL-1β (available from R&D) (4 μg/ml) and TNF-α (available from R&D) (2 μg/ml) dissolved in PBS was administered to tail vein of LEW series rats (female, body weight: about 140 to 170 g, available from Charles River Japan, Inc.) fasted overnight with a ratio of 1 ml/kg of the body weight. Two hours later, blood was collected from the neck vein under ether anesthesia. The collected blood was centrifuged under the conditions of 20° C. and 10,000×g to separate serum. IL-6 concentration in the serum was measured by using an enzyme-linked immunosorbent assay (ELISA) kit (IL-6 ELISA KIT, available from R&D).
The test compound or the vehicle was orally administered with a dose of 10 ml/kg of the body weight before 1 hour of the injection of the cytokine mixed solution. The control group to which the vehicle was administered and the group of the compound to be tested were each 5 rats per group. An inhibitory ratio of the group of the compound to be tested based on control group was calculated.

In the case of `CNc1cc(-c2cn(-c3ccc4nncn4n3)nc2-c2ccc(F)cc2)ccn1` [Example 13, 3-(4-Fluorophenyl)-4-(2-methylaminopyridin-4-yl)-1-([1,2,4]triazolo[4,3-b]pyridazin-6-yl)-1H-pyrazole], the IC50 [1] is reported as 29 nM and the “left hind paw edema suppressive ratio (%) @3 mg/Kg” value ([2]; 21st day) is reported as 79 (21st day) %.

In the case of `Nc1cc(-c2cn(-c3ccc(=O)[nH]n3)nc2-c2ccc(F)cc2)ccn1` [Example 2, 4-(2-Aminopyridin-4-yl)-3-(4-fluorophenyl)-1-(1,6-dihydro-6-oxopyridazin-3-yl)-1H-pyrazole], the IC50 [1] is reported as 2.5 nM, the IC50 [3] is reported as 24 nM and the “28th day left hind paw edema suppressive ratio (%) @3 mg/Kg” value [2] is reported as 83 (28th day) %.

With `Nc1cc(-c2cn(C3=NNC(=O)CC3)nc2-c2ccccc2)ccn1` [Example 49, 4-(2-Aminopyridin-4-yl)-1-(1,4,5,6-tetrahydro-6-oxopyridazin-3-yl)-3-phenyl-1H-pyrazole] the IC50 [1] was 7 nM and the “Rat cytokine induced IL-6 production inhibiting ratio (%) @3 mg/Kg” value [4] was 84%.

With `Fc1ccc(-c2nn(-c3ccc4nncn4n3)cc2-c2ccnc(NCC(F)(F)F)c2)cc1` [Example 16, 3-(4-Fluorophenyl)-1-([1,2,4]triazolo[4,3-b]pyridazin-6-yl)-4-[2-(2,2,2-trifluoroethyl)aminopyridin-4-yl]-1H-pyrazole] the IC50 [1] was 2 nM and the “Rat cytokine induced IL-6 production inhibiting ratio (%) @3 mg/Kg” value [4] was 97%.

With `Nc1cc(-c2cn(-c3ccc4nncn4n3)nc2-c2ccc(F)cc2)ccn1` [Example 8, 4-(2-Aminopyridin-4-yl)-3-(4-fluorophenyl)-1-([1,2,4]triazolo[4,3-b]pyridazin-6-yl)-1H-pyrazole] the IC50 [1] was 7.4 nM and the “28th day left hind paw edema suppressive ratio (%) @3 mg/Kg” value [2] was 79 (28th day) %.

For `Fc1ccc(-c2nn(-c3ccc4nncn4n3)cc2-c2ccncc2)cc1` [Example 5, 3-(4-Fluorophenyl)-4-(pyridin-4-yl)-1-([1,2,4]triazolo[4,3-b]pyridazin-6-yl)-1H-pyrazole], the IC50 [1] was 25 nM, the IC50 [3] was 4 nM and the “Rat cytokine induced IL-6 production inhibiting ratio (%) @3 mg/Kg” value [4] was 92%.

For `Nc1cc(-c2cn(-c3ccc(=O)[nH]n3)nc2-c2ccccc2F)ccn1` [Example 26, 4-(2-Aminopyridin-4-yl)-3-(2-fluorophenyl)l-1(1,6-dihydro-6-oxopyridazin-3-yl)-1H-pyrazole], the “Rat cytokine induced IL-6 production inhibiting ratio (%) @3 mg/Kg” value [4] was 77%.

With `CNc1cc(-c2cn(-c3ccc(=O)[nH]n3)nc2-c2ccc(F)cc2)ccn1` [Example 3, 3-(4-Fluorophenyl)-1-(1,6-dihydro-6-oxopyridazin-3-yl)-4-(2-methylaminopyridin-4-yl)-1H-pyrazole] the “Rat cytokine induced IL-6 production inhibiting ratio (%) @3 mg/Kg” value [4] was 81%.

In the case of `Nc1cc(-c2cn(-c3ccc4nncn4n3)nc2-c2ccccc2F)ccn1` [Example 42, 4-(2-Aminopyridin-4-yl)-3-(2-fluorophenyl)-1-([1,2,4]triazolo[4,3-b]pyridazin-6-yl)-1H-pyrazole], the IC50 [1] is reported as 9.5 nM and the “Rat cytokine induced IL-6 production inhibiting ratio (%) @3 mg/Kg” value [4] is reported as 73%.
